Experimental data reported in patent US20260000729A1, “COMBINATION THERAPIES FOR TREATMENT OF CANCER” (The Regents of the University of Michigan, priority 2022, published 2026).

Legend:
[1] = test system: PC3-luc cells; experiment: Radiograph of injected tibia at necropsy: bone degradation and percent osteolytic area; assay type: in vivo, mice; details: proximal third of tibia, no significant differences among the groups
Description: After 30 days, at the time of necropsy, tumor growth in mouse tibia was checked by radiograph and mice were sacrificed, and serum and bone were collected. Serum was kept at −80° C. and tibia were stored in 10% buffered formalin at room temperature for 48 hours before being stored at 4° C.
Radiographic images were imported into SketchandCalc software. The proximal third of the tibia was traced to calculate its area and defined as total area, then osteolytic areas were traced to calculate the total osteolytic area (FIG. 3A) and the percent osteolytic area/bone area was calculated.

[2] = test system: PC3-luc cells; experiment: Intratibial PC3-luc tumor growth in SCID mice, checked weekly by BLI; assay type: in vivo; details: BAL 20 mg/kg s.c. twice daily, DOC 5 mg/kg i.p. once a week, weeks 1-4, combination p=0.009
Description: Methods: 59 severe combined immunodeficiency (SCID) mice received intratibial injection with PC3-luc cells (2×10^4 cells in 20 ul). Balixafortide (20 mg/kg) (BAL) and vehicle were injected subcutaneously twice daily starting on day one and Docetaxel (5 mg/kg) (DOC) was injected intraperitoneal once a week starting on day one. The tumor growth in mouse tibia was checked weekly by BLI.

Row | Compound | percent osteolytic area/bone area (mean) [1] | tumor growth / total tumor burden in mouse tibia (BLI) [2]
1 | CC(=O)O[C@@]12CO[C@@H]1C[C@H](O)[C@@]1(C)C(=O)[C@H](O)C3=C(C)[C@@H](OC(=O)[C@H](O)[C@@H](NC(=O)OC(C)(C)C)c4ccccc4)C[C@@](O)([C@@H](OC(=O)c4ccccc4)[C@H]21)C3(C)C [Docetaxel, (2R,3S)—N-carboxy-3-phenylisoserine,N-tert-butylester, 13 ester with 5ß-20-epoxy-1,2a,4,78,10B,13a-hexahydroxytax-11-en-9-one 4-acetate 2 benzoate] | lower than vehicle or Balixafortide | neither BAL nor DOC impacted tumor growth as sole agents
2 | cyclo(-Tyr-His-Ala-Cys-Ser-Ala-^DPro-Dab-Arg-Tyr-Cys-Tyr-Gln-Lys-^DPro-Pro-) having a disulfide bond between Cys4 and Cys11 [Balixafortide] | no significant differences among the groups | neither BAL nor DOC impacted tumor growth as sole agents
